Experimental data published in PubChem BioAssay AID1959 (Broad Institute, 2009).
The source made the active and inactive calls.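 The calls were made as follows: active = growth-inhibition EC50 no more than tenfold above the top tested dose; inconclusive = flat fit between 30% and 70% inhibition, or unreliable fit; inactive = EC50 more than tenfold above the top tested dose.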

Test system: E. coli NEB5alpha growth, BacTiter-Glo luminescence, 4 h
Experiment: antibacterial activity against E. coli NEB5alpha – luminescence, counter-screen for MEX-5/POS-1 RNA-binding inhibitor project, dose response (AID 1959);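 also: pUC19-transformed ampicillin-resistant cells grown in LB with ampicillin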

Structure (SMILES) | EC50
CNc1ccc2nc3ccccc3[n+](C)c2c1 | > 11 µM (inactive)
CC1(C)CC(=O)C2=C(C1)OC(N)=C(C#N)C2c1cc2c(cc1[N+](=O)[O-])OCO2 (stereo not given) | > 11 µM (inactive)
COc1ccccc1-n1c(O)c(/C=C2\C=Nc3ccccc32)c(=O)[nH]c1=O | > 11 µM (inactive)
O=C(O)C(=O)/C(=C\c1ccc(Cl)cc1)c1ccc2ccccc2n1 | > 11 µM (inactive)
O=c1[nH]c(=O)n(-c2ccc(Br)cc2)c(O)c1C=NCCN1CCCCC1 | > 11 µM (inactive)
CCCCC1=CC2=CC(=O)C(C)(OC(=O)CC)C(=O)C2=CO1 (stereo not given) | > 11 µM (inactive)
CO[C@H]1O[C@H](CBr)[C@@H](OC(=O)c2ccccc2)[C@H](O)[C@H]1O | > 11 µM (inactive)
Cc1ccccc1CSCCNC(=S)Nc1ccccc1 | > 11 µM (inactive)
COc1ccc(Nc2ncnc3nc[nH]c23)cc1OC | > 11 µM (inactive)
C=CCN1C(=O)/C(=C2/Sc3ccc(OC)cc3N2CC)SC1=S | > 11 µM (inactive)
Cc1ccc2nc(-c3ccc(O)c(O)c3)cn2c1 | > 11 µM (inactive)
CCN(CC)Cc1cc(O)c(CN(CC)CC)cc1O | > 11 µM (inactive)
CN(C)CCCN=Cc1c(O)n(CCc2ccc(F)cc2)c(=O)[nH]c1=O | > 11 µM (inactive)
COC(=O)CCCC1=CC2=CC(=O)C(C)(OC(=O)c3ccco3)C(=O)C2=CO1 (stereo not given) | > 11 µM (inactive)
Cc1ccc(N/N=C/c2c(C)c(C#N)c(=O)n(C)c2O)cc1C | > 11 µM (inactive)
C=Cc1c(C)c2cc3[nH]c(cc4nc(cc5nc(cc1[nH]2)C(C)=C5CCC(=O)O)C(CCC(=O)O)=C4C)c(C)c3C=C | > 11 µM (inactive)
O=C1c2ccccc2C(=O)N1CCCc1nc(-c2ccncc2)no1 | > 11 µM (inactive)
COc1ccc(OC)c(C(=O)c2coc3ccc(O)c(CN4CCOCC4)c23)c1 | > 11 µM (inactive)
CCN1C(=C(C#N)C#N)C=Cc2ccccc21 | > 11 µM (inactive)
NC(=O)c1ccsc1N | > 11 µM (inactive)
COc1ccc(/C=C/C(=O)c2c(O)n(CCC3=CCCCC3)c(=O)[nH]c2=O)cc1OC | > 11 µM (inactive)
O=c1[nH]c(=S)[nH]c2[nH]c(=S)[nH]c12 | > 11 µM (inactive)
O=C(O)CCC(=O)NCc1ccc2[nH]c3c(c2c1)CCCC3 | > 11 µM (inactive)
O=C(NC1CC1)C1Nc2ccc(OC(F)(F)F)cc2C2C=CCC12 (stereo not given) | > 11 µM (inactive)

Structure (SMILES) | EC50
Oc1ccc(-c2cn3ccccc3n2)cc1O | > 11 µM (inactive)
COc1cccc(-n2c(O)c(C=Nc3c(C)n(C)n(-c4ccccc4)c3=O)c(=O)[nH]c2=O)c1 | > 11 µM (inactive)
CC(Cc1ccc(O)c(O)c1)C(C)Cc1ccc(O)c(O)c1 (stereo not given) | > 11 µM (inactive)
O=C(NNC(=O)c1cc(Cl)ccc1O)c1cccc(S(=O)(=O)N2CCOCC2)c1 | > 11 µM (inactive)
CC1(O)C(=O)C=C2C=C(C3CC3)OC=C2C1=O (stereo not given) | > 11 µM (inactive)
O=c1c(/C=C(\O)c2ccccc2)nc2ccccc2n1-c1ccccc1 | > 11 µM (inactive)
CN(C)c1ccc(/C=C2\N=C(C(C)(C)C)OC2=O)cc1 | > 11 µM (inactive)
Cc1ccc2nc3sc(C(=O)N4CCCc5ccccc54)c(N)c3cc2c1 | > 11 µM (inactive)
O=c1c2ccccc2oc2ccc(NCCCn3ccnc3)cc12 | > 11 µM (inactive)
COc1ccccc1Nc1nc2nonc2nc1N1CCCCC1C (stereo not given) | > 11 µM (inactive)
CCOc1cc(/C=C2\SC(=Nc3ccc(CC)cc3)NC2=O)ccc1OCC(=O)O | > 11 µM (inactive)
Cc1ccc(/C=C2\C(=O)NC(=S)N(c3ccc(F)cc3)C2=O)o1 | > 11 µM (inactive)
O=C(O)C1Nc2c(C(F)(F)F)ccc(Cl)c2C2C=CCC12 (stereo not given) | > 11 µM (inactive)
CN1CCc2cccc3c2[C@H]1Cc1ccc(O)c(O)c1-3 | > 11 µM (inactive)
CCOC(=O)C1Nc2c(F)cc(C)cc2C2C=CCC12 (stereo not given) | > 11 µM (inactive)
O=C1C2CC=C(Cl)CC2C(=O)N1CCc1ccccc1 (stereo not given) | > 11 µM (inactive)
C=CCSc1nnc(N2C(=O)C(O)=C(C(=O)c3ccco3)C2c2ccccc2F)s1 (stereo not given) | > 11 µM (inactive)
COc1ccc(C2CC(=O)C(C=NCCCO)=C(O)C2)cc1 (stereo not given) | > 11 µM (inactive)
COc1ccc(OC)c(N=Cc2c(O)c3ccccc3oc2=O)c1 | > 11 µM (inactive)
CCOC(=O)c1cc(=O)n2nc(-c3ccccc3F)nc2s1 | > 11 µM (inactive)
CCOC(=O)Cc1nc2ccccc2n(CC#N)c1=O | > 11 µM (inactive)
c1ccc2[nH]c3cc4ncnc4cc3nc2c1 | > 11 µM (inactive)
CC(C)CNC(=O)C1Nc2ccc(OC(F)(F)F)cc2C2C=CCC12 (stereo not given) | > 11 µM (inactive)
CCCCC1=CC2=CC(=O)C(C)(OC(=O)c3ccco3)C(=O)C2=CO1 (stereo not given) | > 11 µM (inactive)

Structure (SMILES) | EC50
COc1ccc(C(=O)c2sc3nc(C)cc(-c4cccs4)c3c2N)cc1 | > 11 µM (inactive)
CC1=C(C#N)C(=O)NC(=O)/C1=C\c1ccc(-c2cc(C)c(C)cc2[N+](=O)[O-])o1 | > 11 µM (inactive)
CCN1C=CC2=C(C#N)C(N)C(C#N)(C#N)C(c3ccccc3C(F)(F)F)C2C1 (stereo not given) | > 11 µM (inactive)
CC(C)Cc1nn2c(N)c(/C=C3\C=Nc4ccccc43)c(=O)nc2s1 | > 11 µM (inactive)
O=C(NCc1ccccn1)C1Nc2ccc(OC(F)(F)F)cc2C2C=CCC12 (stereo not given) | > 11 µM (inactive)
O=[N+]([O-])c1ccccc1S(=O)(=O)n1nnc2ccccc21 | > 11 µM (inactive)
CCCN1CCCc2cc(CN)ccc21 | > 11 µM (inactive)
OCCCNc1ncnc2sc3c(c12)CCN(Cc1ccccc1)C3 | > 11 µM (inactive)
O=C(O)CCCCCn1c(SCC(=O)c2ccc(O)c(O)c2)nc2ccsc2c1=O | > 11 µM (inactive)
Cc1cc(C(=O)O)ccc1-n1c(C)cc(C=C2C(=O)c3ccccc3C2=O)c1C | > 11 µM (inactive)
Cc1ccc(NC(=O)CN2C(=O)N/C(=C\c3cccn3-c3cccc(C(=O)O)c3)C2=O)cc1 | > 11 µM (inactive)
O=c1[nH]c(=O)n(-c2ccc(F)cc2)c(O)c1/C=C1\C=Nc2ccccc21 | > 11 µM (inactive)
C=CCN=c1scc(-c2ccco2)n1/N=C/c1ccc(O)c(O)c1O | > 11 µM (inactive)
Nc1cc(C(=O)O)c(N)c2c1C(=O)c1ccccc1C2=O | > 11 µM (inactive)
CCC(C)n1c(=N)c(C#N)cc2c(=O)n3cc(C)ccc3nc21 (stereo not given) | > 11 µM (inactive)
COc1cc(C(c2c(C)[nH][nH]c2=O)c2c(C)[nH][nH]c2=O)cc([N+](=O)[O-])c1O | > 11 µM (inactive)
CCOC(=O)C1=C(O)/C(=C/c2cn(CC(=O)N3CCCC3)c3ccccc23)SC1=Nc1ccccc1 | > 11 µM (inactive)
O=C(N/N=C/c1c(O)n(Cc2ccccc2)c(=O)[nH]c1=O)c1ccncc1 | > 11 µM (inactive)
CCOC(=O)Cn1c2ccc(OC)cc2c2nc3ccccc3nc21 | > 11 µM (inactive)
COc1cc(C2C(C#N)=C(N)OC3=C2C(=O)CCC3)ccc1OC(=O)N1CCOCC1 (stereo not given) | > 11 µM (inactive)
COc1cc(/C=C2\CCc3c2nc2ccccc2c3C(=O)O)cc(OC)c1OC | > 11 µM (inactive)
COC(=O)/C(C#N)=C/c1c(Oc2cc(C)cc(C)c2)nc2c(C)cccn2c1=O | > 11 µM (inactive)
